Results on 26 compounds are retold here after US10905679B2, “TRPM8 receptor agonist compounds and uses thereof” (UNIVERSIDAD MIGUEL HERNANDEZ DE ELCHE, priority 2016, dated 2021).

Usually EC50 stands for the concentration giving half of the maximal effect.

T1 sequence (Q7Z2W7 whole entry): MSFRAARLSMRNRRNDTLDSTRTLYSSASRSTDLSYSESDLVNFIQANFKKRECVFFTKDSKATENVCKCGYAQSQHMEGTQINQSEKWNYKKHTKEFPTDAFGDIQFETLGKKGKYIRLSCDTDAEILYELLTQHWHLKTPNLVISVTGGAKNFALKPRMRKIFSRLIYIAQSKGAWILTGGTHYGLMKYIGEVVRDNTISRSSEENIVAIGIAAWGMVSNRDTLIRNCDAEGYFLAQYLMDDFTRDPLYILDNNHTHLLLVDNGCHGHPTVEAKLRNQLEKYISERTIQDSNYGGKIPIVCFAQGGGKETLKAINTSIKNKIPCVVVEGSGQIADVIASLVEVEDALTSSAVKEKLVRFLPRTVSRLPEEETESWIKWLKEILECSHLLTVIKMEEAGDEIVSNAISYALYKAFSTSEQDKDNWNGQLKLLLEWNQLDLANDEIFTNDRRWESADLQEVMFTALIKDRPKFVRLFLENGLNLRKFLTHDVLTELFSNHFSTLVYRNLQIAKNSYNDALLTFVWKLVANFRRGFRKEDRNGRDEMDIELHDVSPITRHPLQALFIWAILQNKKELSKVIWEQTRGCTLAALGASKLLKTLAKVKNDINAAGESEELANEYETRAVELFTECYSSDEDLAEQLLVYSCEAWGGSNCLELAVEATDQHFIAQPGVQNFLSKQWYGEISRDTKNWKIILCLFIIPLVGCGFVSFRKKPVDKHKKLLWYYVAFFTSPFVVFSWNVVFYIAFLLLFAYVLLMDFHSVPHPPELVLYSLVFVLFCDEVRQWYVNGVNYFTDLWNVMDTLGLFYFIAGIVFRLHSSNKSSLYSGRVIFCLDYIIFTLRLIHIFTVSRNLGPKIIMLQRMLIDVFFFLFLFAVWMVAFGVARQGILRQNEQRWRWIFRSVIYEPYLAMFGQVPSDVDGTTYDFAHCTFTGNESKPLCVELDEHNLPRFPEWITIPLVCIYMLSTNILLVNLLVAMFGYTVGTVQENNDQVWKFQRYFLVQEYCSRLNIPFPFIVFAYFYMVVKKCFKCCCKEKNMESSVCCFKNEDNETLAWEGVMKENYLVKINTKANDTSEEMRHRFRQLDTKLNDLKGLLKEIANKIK

The subject of one experiment is guinea pig. The experiment can be described thus: In vivo tear secretion measured using phenol red threads after ocular instillation. To be noted: instilled ocularly at 200 μM, phenol red thread 30 seconds. The text has this:
The in vivo activity of the selected TRPM8 activating compounds (TZM-7) has been assessed in an animal model following the protocol described in Acosta M C et al., Invest Ophthalmol Vis Sci 2014 (Corneal sensory nerve activity in an experimental model of UV keratitis. Acosta M et al., Invest Ophthalmol Vis Sci May 1; 55(6):3403-12). […] Tear secretion can be measured using phenol red threads (Zone-Quick, Menicon, Nagoya, Japan) that are applied to the nasal edge of the lower eyelid for 30 seconds (after that time, the distance of the red-dyed thread is measured in mm).
For the compound `CC1CCC(C(C)C)C(O)C1` (stereo not shown) [Menthol, reference compound], the tear secretion entry is reported as “produces an increase in tear secretion”.

The next experiment addresses T1, TRPM8 (Homo sapiens, UniProt Q7Z2W7).
T1 construct: expressed in transfected cells
The experiment can be described thus: Ca2+ fluorimetry assay in CHO cell line stably expressing TRPM8. The experiment is classed as cell-based. To be noted: 10 μM; CHO cells stably expressing TRPM8; Fluo-4NW fluorescence. Here is the method: The cells were cultured in monolayer in EMEM medium (Earle's minimum essential medium with Earle's salts, Invitrogen) supplemented with 10% foetal bovine serum (FBS), 2 mM L-glutamine, 1% penicillin-streptomycin solution and […] of the Geneticin antibiotic (Sigma) and kept at 37° C. in a humidified atmosphere with 5% of CO2. Ca^2+ fluorimetry assays were carried out in order to determine the efficacy of the compounds on the TRPM8 channels. The cells were seeded in 96-well plates with a density of 25,000 cells per well. Three days after seeding, the medium was removed and 100 μl of the Fluo-4NW fluorescent probe from Invitrogen was added with a concentration of 5 μM in the presence of 0.02% pluronic acid; after 60 minutes of incubation at 37° C. in a humidified atmosphere with 5% of CO2, the fluorescence was measured in a microplate reader (POLARstar Omega) with a configuration of 485 nm for the excitation and 520 nm for the emission, during 20 cycles. […] In the wells that were used as negative controls, 1 μl of AMTB [N-(3-aminopropyl)-2-[(3-methylphenyl)methoxy]-N-(2-thienylmethyl)benzamide] was added to obtain a final concentration of 10 μM, to block the TRPM8 channels.
The amplitudes of the Ca^2+ increases, caused by the stimulation of the cells with the compounds, were measured by subtracting the basal fluorescence signal (mean intensity obtained before adding the compound) from the fluorescence peak obtained after applying the compounds. The obtained results were adjusted to a sigmoid function using the software suite of the GraphPad Prism computer program.
Consider `CC1CC[C@@H](C(C)C)[C@H](n2cc(CCCCCCCCC(=O)O)nn2)C1` (stereo in doubt) [TZM-21, 9-(1-((1R,2S,5S)-2-isopropyl-5-methylcyclohexyl)-1H-1,2,3-triazole-4-yl)-nonanoic acid], for which the activation at 10 µM stood at 54 ± 14.4%.
Same read-out and setting: the same measure for `CC1CC[C@@H](C(C)C)[C@H](n2cc(CCCCC#N)nn2)C1` (stereo in doubt) [TZM-22, 5-(1-((1R,2S,5S)-2-isopropyl-5-methylcyclohexyl)-1H-1,2,3-triazole-4-yl)pentanenitrile]: 57.3 ± 15.2%.
The same measure, in the same setting: the same measure for `CC1CCC(C(C)C)C(O)C1` (stereo not shown) [Menthol, reference compound]: 101 ± 1.66%; for `CC(C)[C@@H]1CC[C@@H](C)C[C@H]1n1cc(CO)nn1` [TZM-1]: 45.5 ± 11.2%.
In the case of `CC(C)[C@@H]1CC[C@@H](C)C[C@H]1n1cc(-c2ccc(Oc3ccccc3)cc2)nn1` [TZM-2, 1-((1R,2S,5R)-2-isopropyl-5-methylcyclohexyl)-4-(4-phenoxyphenyl)-1H-1,2,3-triazole], the activation at 10 µM stood at 55.6 ± 26.2%.
Turning to `CC(C)[C@@H]1CC[C@@H](C)C[C@H]1n1cc(-c2ccccc2)nn1` [TZM-3, 1-((1R,2S,5R)-2-isopropyl-5-methylcyclohexyl)-4-phenyl-1H-1,2,3-triazole], the activation at 10 µM stood at 51.6 ± 14%.
In turn, `COc1ccc(-c2cn([C@@H]3C[C@H](C)CC[C@H]3C(C)C)nn2)cc1` [TZM-4, 1-((1R,2S,5R)-2-isopropyl-5-methylcyclohexyl)-4-(4-methoxyphenyl)-1H-1,2,3-triazole] displayed an activation at 10 µM of 85.1 ± 33%.
Take `CC(C)[C@@H]1CC[C@@H](C)C[C@H]1n1cc(-c2ccc(-c3ccccc3)cc2)nn1` [TZM-5, 4-([1,1′-biphenyl]-4-yl)-1-((1R,2S,5R)-2-isopropyl-5-methylcyclohexyl)-1H-1,2,3-triazole]: the activation at 10 µM is 50.1 ± 8.25%.
`CC(C)[C@@H]1CC[C@@H](C)C[C@H]1n1cc(C2(O)CCCCC2)nn1` [TZM-6, 1-(1-((1R,2S,5R)-2-isopropyl-5-methylcyclohexyl)-1H-1,2,3-triazole-4-yl)cyclohexan-1-ol] came in with an activation at 10 µM of 45.1 ± 16.9%.
Still for that read-out and setting: the same measure for `CC(C)[C@@H]1CC[C@@H](C)C[C@H]1n1cc(-c2cccc3ccccc23)nn1` [TZM-8, 1-((1R,2S,5R)-2-isopropyl-5-methylcyclohexyl)-4-(naphthalene-1-yl)-1H-1,2,3-triazole]: 56.5 ± 29.7%.
The same measure, in the same setting: the same measure for `CC(C)[C@@H]1CC[C@@H](C)C[C@H]1n1cc(-c2ccccn2)nn1` [TZM-9, 2-(1-((1R,2S,5R)-2-isopropyl-5-methylcyclohexyl)-1H-1,2,3-triazole-4-yl)pyridine]: 59.1 ± 30.4%.
On to `CC(C)[C@@H]1CC[C@@H](C)C[C@H]1n1cc(CCc2ccccc2)nn1` [TZM-10, 1-((1R,2S,5R)-2-isopropyl-5-methylcyclohexyl)-4-phenethyl-1H-1,2,3-triazole], for which the activation at 10 µM was 45 ± 23.4%.
In turn, `COc1ccc(C(=O)c2cn([C@@H]3C[C@H](C)CC[C@H]3C(C)C)nn2)cc1OC` [TZM-11, (3,4-dimethoxyphenyl) (1-((1R,2S,5R)-2-isopropyl-5-methylcyclohexyl)-1H-1,2,3-triazole-4-yl)methanone] returned an activation at 10 µM of 53.5 ± 13.4%.
On the same count and under the same terms, the same measure for `CC(C)[C@@H]1CC[C@@H](C)C[C@H]1n1cc(C(=O)c2cccc(F)c2)nn1` [TZM-12, (3-fluorophenyl) (1-((1R,2S,5R)-2-isopropyl-5-methylcyclohexyl)-1H-1,2,3-triazole-4-yl)methanone]: 57.9 ± 8.57%.
Compound `CC(C)[C@@H]1CC[C@@H](C)C[C@H]1n1cc(C(=O)c2ccc(Oc3ccccc3)cc2)nn1` [TZM-13, (1-((1R,2S,5R)-2-isopropyl-5-methylcyclohexyl)-1H-1,2,3-triazole-4-yl) (4-phenoxyphenyl)methanone] returned an activation at 10 µM of 46.5 ± 6.57%.
As for `COc1ccc(C(=O)c2cn([C@@H]3C[C@H](C)CC[C@H]3C(C)C)nn2)c(OC)c1` [TZM-14, (2,4-dimethoxyphenyl) (1-((1R,2S,5R)-2-isopropyl-5-methylcyclohexyl)-1H-1,2,3-triazole-4-yl)methanone], the activation at 10 µM stood at 43.8 ± 4.22%.
Same read-out and setting: the same measure for `COc1ccccc1C(=O)c1cn([C@@H]2C[C@H](C)CC[C@H]2C(C)C)nn1` [TZM-15, (1-((1R,2S,5R)-2-isopropyl-5-methylcyclohexyl)-1H-1,2,3-triazole-4-yl) (2-methoxyphenyl)methanone]: 50.5 ± 4.83%; for `COc1cc(OC)cc(C(=O)c2cn([C@@H]3C[C@H](C)CC[C@H]3C(C)C)nn2)c1` [TZM-16, (3,5-dimethoxyphenyl) (1-((1R,2S,5R)-2-isopropyl-5-methylcyclohexyl)-1H-1,2,3-triazole-4-yl)methanone]: 44.5 ± 5.59%.
Compound `CC(C)[C@@H]1CC[C@@H](C)C[C@H]1n1cc(C(=O)c2ccc(-c3ccccc3)cc2)nn1` [TZM-17, [1,1′-biphenyl]-4-yl(1-((1R,2S,5R)-2-isopropyl-5-methylcyclohexyl)-1H-1,2,3-triazole-4-yl)methanone] displayed an activation at 10 µM of 42 ± 4.53%.
`COc1ccc(C(=O)c2cn([C@@H]3C[C@H](C)CC[C@H]3C(C)C)nn2)cc1` [TZM-18, (1-((1R,2S,5R)-2-isopropyl-5-methylcyclohexyl)-1H-1,2,3-triazole-4-yl) (4-methoxyphenyl)methanone] showed an activation at 10 µM of 44.6 ± 5.62%.
On the same count and under the same terms, under `COc1cccc(C(=O)c2cn([C@@H]3C[C@H](C)CC[C@H]3C(C)C)nn2)c1` [TZM-19, (1-((1R,2S,5R)-2-isopropyl-5-methylcyclohexyl)-1H-1,2,3-triazole-4-yl) (3-methoxyphenyl)methanone] stands 40.8 ± 9.01%; under `CC(C)[C@@H]1CC[C@@H](C)C[C@H]1n1cc(C(=O)c2ccc(Cl)cc2)nn1` [TZM-20, (4-chlorophenyl) (1-((1R,2S,5R)-2-isopropyl-5-methylcyclohexyl)-1H-1,2,3-triazole-4-yl)methanone], 66.9 ± 17.5%.
Regarding `CC(C)[C@@H]1CC[C@@H](C)C[C@H]1n1cc(-c2cccc(O)c2)nn1` [TZM-23, 3-[1-((1R,2S,5R)-2-isopropyl-5-methylcyclohexyl)-1H-1,2,3-triazole-4-yl]phenol], the activation at 10 µM came out at 51.2 ± 16.1%.
Same read-out and setting: under `COc1cccc(-c2cn([C@@H]3C[C@H](C)CC[C@H]3C(C)C)nn2)c1` [TZM-24, 1-((1R,2S,5R)-2-isopropyl-5-methylcyclohexyl)-4-(3-methoxyphenyl)-1H-1,2,3-triazole] stands 37.8 ± 5.49%; under `COCc1cn([C@@H]2C[C@H](C)CC[C@H]2C(C)C)nn1` [TZM-25, 1-((1R,2S,5R)-2-isopropyl-5-methylcyclohexyl)-4-(methoxymethyl)-1H-1,2,3-triazole], 45.1 ± 18.6%.
Same read-out and setting: under `COc1ccc(C(O)c2cn([C@@H]3C[C@H](C)CC[C@H]3C(C)C)nn2)cc1OC` (stereo partly drawn) [TZM-26, (3,4-dimethoxyphenyl) (1-((1R,2S,5R)-2-isopropyl-5-methylcyclohexyl)-1H-1,2,3-triazole-4-yl)methanol] stands 50.9 ± 17.2%.

The same experiment, now with this note: CHO cells stably expressing TRPM8; concentrations 0.1, 1, 10 and 100 μM; sigmoid fit.
The compound `COc1ccc(-c2cn([C@@H]3C[C@H](C)CC[C@H]3C(C)C)nn2)cc1` [TZM-4, 1-((1R,2S,5R)-2-isopropyl-5-methylcyclohexyl)-4-(4-methoxyphenyl)-1H-1,2,3-triazole] returned an EC50 of 3.47 ± 1.34 µM.
Same read-out and setting: under `CC(C)[C@@H]1CC[C@@H](C)C[C@H]1n1cc(-c2ccccn2)nn1` [TZM-9, 2-(1-((1R,2S,5R)-2-isopropyl-5-methylcyclohexyl)-1H-1,2,3-triazole-4-yl)pyridine] stands 6.23 ± 3.18 µM.
On the same count and under the same terms, under `CC(C)[C@@H]1CC[C@@H](C)C[C@H]1n1cc(CCc2ccccc2)nn1` [TZM-10, 1-((1R,2S,5R)-2-isopropyl-5-methylcyclohexyl)-4-phenethyl-1H-1,2,3-triazole] stands 3.84 ± 2.36 µM.
`COc1ccc(C(=O)c2cn([C@@H]3C[C@H](C)CC[C@H]3C(C)C)nn2)cc1OC` [TZM-11, (3,4-dimethoxyphenyl) (1-((1R,2S,5R)-2-isopropyl-5-methylcyclohexyl)-1H-1,2,3-triazole-4-yl)methanone]: the half-maximal effective concentration (EC50) is 9.84 ± 3.29 µM.
